{"source": "patent US20110020843A1", "about": "“LABEL-FREE METHODS RELATED TO PHOSPHODIESTERASES” (priority 2009, published 2011)", "key": {"[1]": {"system": "human lung carcinoma A549 cells", "experiment": "Label-free Epic biosensor DMR assay in A549 cells", "type": "cell-based", "conditions": "10 micromolar, ultra-high confluent cells, 2 hrs in low CO2 (~2%) (FIG. 12B)", "method": "169. Cells were typically grown using ˜1 to 2×10^4 cells per well at passage 3 to 15 suspended in 50 μl of the corresponding culture medium in the biosensor microplate, and were cultured at 37° C. under air/5% CO2 for ˜1 day. Except for A431 which was subject to ˜20 hr starvation through continuously culture in the serum-free DMEM, the other cell types were directly assayed without starvation. The confluency for all cells at the time of assays was ˜95% to 100%.\n177. Epic® wavelength interrogation system (Corning Inc., Corning, N.Y.) was used for whole cell sensing. This system consists of a temperature-control unit, an optical detection unit, and an on-board liquid handling unit with robotics. The detection unit is centered on integrated fiber optics, and enables kinetic measures of cellular responses with a time interval of ˜15 sec. The compound solutions were introduced by using the on-board liquid handling unit (i.e., pippetting).\n190. Although we used A431 cells as a model, the disclosed methods are also applicable to other types.\n191. To characterize the polypharmacology including PDE4 inhibitory activity of compounds, we used the known EGFR inhibitor tyrphostin 51 as an example. […] Next, one or more specific DMR parameters were chosen as a readout for plotting the DMR index of the molecule."}, "quiescent A431 cells": {"system": "quiescent A431 cells", "experiment": "DMR modulation index against panel of markers in quiescent A431 cells", "type": "cell-based, human", "from_the_text": "(§1) 191. To characterize the polypharmacology including PDE4 inhibitory activity of compounds, we used the known EGFR inhibitor tyrphostin 51 as an example. Quiescent A431 and proliferating A549 cells were separately exposed to tyrphostin 51 at 10 micromolar for about 1 hr to generate its primary profiles, followed by stimulation with each marker at a fixed concentration for another 1 hr or so to generate secondary profiles of the tyrphostin 51 against the panels of markers in both types of cells. Next, one or more specific DMR parameters were chosen as a readout for plotting the DMR index of the molecule.\n192. The first panel of markers was contacted with quiescent A431 cells at concentrations close to each of the marker's EC80 or EC100, and DMR measurements were obtained with and EPIC® system. This panel of markers was selected from a library of markers identified in A431 cells using Epic® cellular assays. This panel included epidermal growth factor (EGF), epinephrine, nicotinic acid, and histamine. Each of these markers leads to a wide array of cell signaling. Using Epic® cellular assays in conjunction with chemical biology and cell biology approach similar to the EGFR DMR mentioned above, we have determined the pathway(s) and network interaction(s) that is accounted for each marker-induced DMR signal in A431 cells. The main observations are summarized below. Epidermal growth factor is a natural agonist for endogenous EGF receptor in A431 whose activation leads to a divergent array of cell signaling, including PLC-PI3K pathway, MAPK pathway, STAT pathway, and PKC pathway. Epinephrine is a natural agonist for endogenous beat2-adrenergic receptor in A431 cells, whose activation leads to cAMP-PKA pathway. Nicotinic acid is a natural agonist for endogenous GPR109A receptor in A431, whose activation leads to Gi-mediated signaling and MAPK pathway. Histamine is a natural agonist for endogenous histamine type 1 receptor (H1R) in A431, whose activation leads to Gq-mediated signaling and PKC pathway. […] Each DMR signal represents an averaged response of 4 replicates.\n(§2) 194. For the pinacidil DMR response in A549, the amplitude of the N-DMR (i.e., the amplitude 30 min after stimulation) was chosen. For the poly(I:C) DMR response in A549, the amplitude of the late DMR (i.e., the amplitude 50 min after stimulation) was chosen. For the PMA response in A549, the late DMR amplitude (i.e., the amplitude 50 min after stimulation) was chosen. For the SLIGKV-amide DMR response in A549, the P-DMR amplitude (i.e., the amplitude 20 min after stimulation) was chosen. For the forskolin response in A549 cells, the P-DMR amplitude (i.e., the amplitude 50 min after stimulation) was chosen. For the histamine response in A549, both the early DMR amplitude (i.e., amplitude 10 min after stimulation) and the late response (i.e., the amplitude 30 min after stimulation) were chosen. For the epinephrine response in A431, the P-DMR amplitude (i.e., the amplitude 50 min after stimulation) was chosen. For the nicotinic acid DMR in A431, the P-DMR amplitude (i.e., the amplitude 3 min after stimulation) was chosen. For the EGF DMR in A431, both the P-DMR (i.e., the amplitude 4 min after stimulation) and N-DMR amplitudes (i.e., the decaying amplitude between 4 min and 40 min after simulation) were chosen. For the histamine response in A431, the P-DMR amplitude (i.e., the amplitude 3 min after stimulation) was chosen. The percentage of modulation of the marker against each marker was calculated by normalizing the secondary profile of the molecule against the marker in the cell to the primary profile of the same marker acting on the same cell."}, "A549 cells": {"system": "A549 cells", "experiment": "DMR modulation index against panel of markers in A549 cells", "type": "cell-based, human", "from_the_text": "as §1\n193. The second panel of markers was contacted with A549 cells at concentrations close to each of the marker's EC80 or EC100, and DMR measurements were obtained with and EPIC® system. This panel included poly(I:C), SLIGKV-amide, pinacidil, PMA, histamine, and forskolin. Each of these markers also leads to a wide array of cell signaling. Using Epic® cellular assays in conjunction with chemical biology and cell biology approach similar to the EGFR DMR mentioned above, we have determined the pathway(s) and network interaction(s) that is accounted for each marker-induced DMR signal in A549 cells. The main observations are summarized below. Poly(I:C) is an agonist for endogenous Toll-like receptor(s) in A549, whose activation leads to IKK pathway and AKT pathway. SLIGKV-amide is an agonist for endogenous protease activated receptor subtype 2 (PAR2) in A549, whose activation leads to Gq-, Gi- and G12/13-mediated signaling. Pinacidil is an opener for endogenous ATP-sensitive potassium (KATP) ion channel in A549, whose activation leads to Rho- and JAK-mediated signaling. PMA is an activator for protein kinase C(PKC), whose activation leads to PKC pathway and degranulation. Histamine is a natural agonist for endogenous histamine receptors (dominantly H1R, and possibly H3R), whose activation leads to dual signaling, possibly through Gq and Gi mediated signaling in A549. Forskolin is an activator for adenylyl cyclases, whose activation leads to cAMP-PKA pathway in A549. […] Each DMR signal represents an averaged response of 4 replicates.\nas §2"}, "[2]": {"conditions": "quiescent A431, 10 micromolar pretreatment ~1 hr"}, "[3]": {"conditions": "10 micromolar pretreatment ~1 hr"}}}
{"smiles": "N#CC(C#N)=C(N)/C(C#N)=C/c1cc(O)c(O)c(O)c1", "note": "[tyrphostin 51]", "values": [{"measurement": "primary DMR profile", "setting": "[1]", "result": "closely resembled the classic Gs-DMR signals"}, {"measurement": "effect of pretreatment on EGF induced DMR signal", "setting": "quiescent A431 cells; A431, FIG. 12C", "result": "attenuation"}, {"measurement": "effect of pretreatment on epinephrine DMR signal", "setting": "quiescent A431 cells; A431, FIG. 12C", "result": "partially attenuated"}, {"measurement": "effect of pretreatment on histamine DMR signal", "setting": "quiescent A431 cells; A431, FIG. 12C", "result": "partially attenuated"}, {"measurement": "modulation of EGF N-DMR (decaying amplitude 4 to 40 min)", "setting": "quiescent A431 cells; [2]", "result": "−5", "unit": "%"}, {"measurement": "modulation of EGF P-DMR (amplitude 4 min)", "setting": "quiescent A431 cells; [2]", "result": "−36", "unit": "%"}, {"measurement": "modulation of epinephrine DMR (P-DMR amplitude 50 min)", "setting": "quiescent A431 cells; [2]", "result": "−68", "unit": "%"}, {"measurement": "modulation of histamine DMR (P-DMR amplitude 3 min)", "setting": "quiescent A431 cells; [2]", "result": "−16", "unit": "%"}, {"measurement": "modulation of nicotinic acid DMR (P-DMR amplitude 3 min)", "setting": "quiescent A431 cells; [2]", "result": "+4%"}, {"measurement": "modulation of PMA DMR (late DMR amplitude 50 min)", "setting": "A549 cells; [3]", "result": "−6", "unit": "%"}, {"measurement": "modulation of SLIGKV-amide DMR (P-DMR amplitude 20 min)", "setting": "A549 cells; [3]", "result": 0, "unit": "%"}, {"measurement": "modulation of forskolin DMR (P-DMR amplitude 50 min)", "setting": "A549 cells; [3]", "result": "−23", "unit": "%"}, {"measurement": "modulation of histamine early response (amplitude 10 min)", "setting": "A549 cells; [3]", "result": "+6%"}, {"measurement": "modulation of histamine late response (amplitude 30 min)", "setting": "A549 cells; [3]", "result": 0, "unit": "%"}, {"measurement": "modulation of poly(I:C) DMR (late DMR amplitude 50 min)", "setting": "A549 cells; [3]", "result": "+5%"}, {"measurement": "effect of pretreatment on forskolin DMR signal", "setting": "A549 cells; FIG. 12C", "result": "partially attenuated"}, {"measurement": "modulation of pinacidil DMR (N-DMR amplitude 30 min)", "setting": "A549 cells; tyrphostin 51 at 10 micromolar pretreatment ~1 hr", "result": 0, "unit": "%"}]}
